According to publication PMC7887271, “Fast acting allosteric phosphofructokinase inhibitors block trypanosome glycolysis and cure acute African trypanosomiasis in mice” (Nature Communications, 2021):
pEC50, pIC50: −log10 of the molar value. Where two headings read alike, the source gives them in different places.

Columns and labels:
HepG2 cells = test: HepG2 cytotoxicity assay; type: cell-based, human
Procedure: (§1) A HepG2 cytotoxicity assay was used to determine a cellular selectivity index. HepG2 cells were seeded into 96-well plates in EMEM medium. Compounds were assessed for their effect upon cellular viability (Supplementary Methods 5.1). Inhibition of CYP450 was determined using kits from BD Biosciences (Supplementary Methods 5.2). Metabolic stability was determined using mouse […] tested at a single concentration of 5 µM. Plasma protein binding was determined using mouse and human plasma at a single concentration of 10 µM (Supplementary Methods 5.4). All PK studies in mice were carried out by Pharmidex (Supplementary Methods 6.1).
To determine a cellular selectivity index, a HepG2 Cytotoxicity Assay was used. HepG2 cells (a human hepatocyte carcinoma cell line) were seeded into 96 well plates in EMEM media. Compounds were assessed for their effect upon cellular viability (6 point dose response curves). After 72h the numbers of viable cells were detected using Promega CellTitreGlo reagent to measure ATP using the luciferase/luciferin detection system. The selectivity index is calculated as the EC50 in the HepG2 assay divided by the EC50 determined in the T. b. brucei parasite killing assay.

[1] = Metabolic stability, mouse liver microsomes; type: in vitro ADME; details: read-out: MLM Clint
Procedure: as §1
(§2) Compounds were tested for their metabolic stability using mouse and human liver microsomes (MLM and HLM). The compounds were tested at a single concentration of 5 µM. The samples were crashed with acetonitrile and put through protein precipitation plates. The eluent was analysed by LC/MS or LC/MS/MS.

Human hERG = Human hERG (Homo sapiens, UniProt Q12809); test: Human hERG inhibition
Source text: Methods are described in Supplementary Methods 5 and 6. Enzyme assay results are means ± SD in multiple assays. ADME results are averages of n = 2 or 3 measurements in individual assays.

[2] = Tolerance studies and plasma levels after multiple oral dosing; type: in vivo; details: mice, oral
Procedure: All efficacy studies were carried out using CD-1 mice in accordance with the United Kingdom Animals (Scientific Procedures) Act (1986) under Home Office regulations. Studies were performed in SPF facilities at the University of Edinburgh under licence PPL 70/8102 and at the University of Glasgow under PPL 60/4442. The experiments were approved by the local ethics committees of the respective universities. Dosing regimens used in efficacy studies were first tested for tolerance in female CD-1 mice (University of Edinburgh; 6–8 weeks old). Animals were dosed orally by gavage with CTCB compounds following the dosing regimen for each individual experiment (n = 5; Supplementary Methods 6.2).
Dosing regimens used in efficacy studies were first tested for tolerance in female CD-1 mice (University of Edinburgh; 6-8 weeks old). Animals were dosed orally by gavage with CTCB compounds following the dosing regimen for each individual experiment (n=5) as indicated. Compounds were administered in a mixture containing Cremophor EL: EtOH: D-PBS (30:10:60 v/v). Animals were monitored for up to 8 hours post-dosing. On the final day of dosing, 2 hours after the final dose, whole blood was harvested from three mice via cardiac puncture, under gaseous isoflurane anaesthesia, to obtain plasma for analyses. The remaining two mice were monitored for several days post dosing. To avoid coagulation, 100 μl of 2% sodium citrate was utilised in the syringe during the procedure and blood samples subsequently transferred to heparin coated microtubules. Blood samples were centrifuged at 800 x g for 10 minutes at room temperature. The supernatant containing the plasma was transferred to a fresh tube for determination of compound levels and further PK analysis.

[3] = Plasma protein binding, mouse plasma; type: in vitro ADME
Procedure: as §1
(§3) Compounds were tested for protein binding using mouse and human plasma at a single concentration of 10 µM and measured by equilibrium dialysis between plasma and buffer. The amount of parent was determined on both sides of the membrane after incubating for 4 hours at 37 °C. The samples were crashed with acetonitrile and put through protein precipitation plates. The eluent was analysed by LC/MS or LC/MS/MS. Output was percentage bound.

[4] = Metabolic stability, human liver microsomes; type: in vitro ADME; details: read-out: HLM Clint
Procedure: as §1, §2

[5] = Plasma protein binding, human plasma; type: in vitro ADME; details: equilibrium dialysis, read-out: Human plasma protein binding fu(%)
Procedure: as §1, §3

[6] = Pharmacokinetic studies in mice (IV and PO); type: in vivo, female CD-1 mice; details: female, CD-1, plasma, mouse; for AUC(0-inf): read-out: AUC (infinity)
Procedure: PK parameters for the lead compounds were determined using three mice per data point (Supplementary Methods 6.1).
Blood samples were collected from terminal cardiac puncture at 0.08 (IV only), 0.25, 0.5, 1 (PO only), 2, 4, 8 and 24 hour time points. The whole blood was centrifuged to obtain plasma. Brains were also collected following cardiac perfusion from both sets of animals at 2 hours. Analysis of the biological samples was carried out by the company Selcia. Plasma proteins were precipitated by addition of PBS (1 volume) followed by 3 volumes of acetonitrile containing internal standard (verapamil). Following filtration through a protein precipitation plate the eluent was dried under nitrogen and re-suspended in mobile phase prior to analysis. Individual brains were homogenised in PBS and diluted to 10% w/v and divided into aliquots consisting of brain homogenate (1 volume, 0.3 ml) and 3 volumes (0.9 ml) of acetonitrile containing internal standard. Samples were centrifuged and supernatants removed and taken through a protein precipitation plate alongside an appropriate standard. Eluents were dried under nitrogen and re-suspended in mobile phase prior to analysis. Eluents were analysed by LC-MS/MS using a Phenomenex Gemini NX column (C18,30 x 2.1 mm, 3 micron). Analysis of the data was carried out using PK solutions software.

Human hERG, sequence (Q12809 whole entry): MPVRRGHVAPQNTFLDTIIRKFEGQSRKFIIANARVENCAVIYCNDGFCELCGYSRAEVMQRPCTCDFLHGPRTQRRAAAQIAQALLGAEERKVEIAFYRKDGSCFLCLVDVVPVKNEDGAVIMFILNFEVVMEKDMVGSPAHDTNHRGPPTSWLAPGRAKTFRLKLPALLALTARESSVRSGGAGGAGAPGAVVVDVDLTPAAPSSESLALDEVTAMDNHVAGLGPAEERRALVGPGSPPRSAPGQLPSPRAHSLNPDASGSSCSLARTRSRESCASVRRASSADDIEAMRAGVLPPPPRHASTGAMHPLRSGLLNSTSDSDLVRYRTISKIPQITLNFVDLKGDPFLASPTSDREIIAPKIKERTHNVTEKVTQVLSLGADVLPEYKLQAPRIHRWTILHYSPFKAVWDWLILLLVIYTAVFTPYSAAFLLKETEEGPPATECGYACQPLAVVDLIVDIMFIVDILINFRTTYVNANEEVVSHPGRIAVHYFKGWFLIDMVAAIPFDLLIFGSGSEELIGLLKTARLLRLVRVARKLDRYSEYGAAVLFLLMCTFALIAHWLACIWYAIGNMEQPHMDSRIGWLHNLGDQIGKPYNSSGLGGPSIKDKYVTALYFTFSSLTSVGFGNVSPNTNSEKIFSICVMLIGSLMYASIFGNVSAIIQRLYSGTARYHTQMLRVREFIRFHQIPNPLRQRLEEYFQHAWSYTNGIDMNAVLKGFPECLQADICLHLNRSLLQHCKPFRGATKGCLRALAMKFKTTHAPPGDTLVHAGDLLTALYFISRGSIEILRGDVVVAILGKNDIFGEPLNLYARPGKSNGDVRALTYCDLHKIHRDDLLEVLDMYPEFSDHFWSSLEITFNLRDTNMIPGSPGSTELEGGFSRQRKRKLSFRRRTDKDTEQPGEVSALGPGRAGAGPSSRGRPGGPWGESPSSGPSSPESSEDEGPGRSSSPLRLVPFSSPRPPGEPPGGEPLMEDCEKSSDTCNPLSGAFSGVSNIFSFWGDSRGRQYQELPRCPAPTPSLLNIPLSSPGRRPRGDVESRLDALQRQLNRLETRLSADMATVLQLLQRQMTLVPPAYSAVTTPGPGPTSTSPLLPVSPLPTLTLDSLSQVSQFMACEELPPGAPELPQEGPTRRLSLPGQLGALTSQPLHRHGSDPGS

Work on `CN(C)CCn1ccc2c(ccn2Cc2ccc(Cl)c(Br)c2)c1=O` [CTCB-470, 1-[(3-Bromo-4-chlorophenyl)methyl]-5-[2-(dimethylamino)ethyl] pyrrolo[3,2-c]pyridin-4-one] yielded a Selectivity (HepG2 cells; EC50 HepG2 divided by EC50 T. b. brucei parasite killing) of 39, a pEC50 (HepG2 cells; Homo sapiens, HepG2, 72 h, CellTitreGlo) of 4.91 and a microsomal CLint at 5 µM [1] of 91 µL/min/mg. The pIC50 (Human hERG) was 5.77, the “tolerance of high doses” value [2] was “well tolerated” and the fraction unbound at 4 h, 10 µM ([3]; 10 µM, equilibrium dialysis, read-out: Mouse plasma protein binding fu(%)) was 0.06. The fraction unbound at 4 h, 10 µM ([3]; percentage bound, read-out: mouse plasma protein binding value (converted)) was 0.058, the microsomal CLint at 5 µM [4] was 17 µL/min/mg and the fraction unbound at 4 h, 10 µM [5] was 0.032. For the same compound, the AUC(0-inf) ([6]; IV 1 mg kg^−1) was 657 ng·h/mL, the clearance ([6]; IV 1 mg kg^−1, read-out: CL/kg (converted)) was 25 mL/min/kg and the half-life ([6]; IV 1 mg kg^−1, read-out: Elimination t1/2 (converted)) was 3.1 h. It also gave a Vd ([6]; IV 1 mg kg^−1, read-out: Vd (area)) of 6.9 L/kg, a Cmax ([6]; PO 10 mg kg^−1) of 393 ng/mL and a Tmax ([6]; PO 10 mg kg^−1) of 0.5 h. It also gave an AUC(0-inf) ([6]; PO 10 mg kg^−1) of 1560 ng·h/mL and a bioavailability ([6]; PO 10 mg kg^−1 vs IV 1 mg kg^−1, read-out: Bioavailability (F%)) of 24%.
